Results from patent US12723063B2, “GIPR-agonist compounds” (Eli Lilly and Company, priority 2019, dated 2026).
*1 amine or outer side, *2 acyl side, *3 side chain or, on linkers, in order; H or OH if unused. Where a SMILES comes first, the peptide text is derived from it. Side-chain parts run from the residue outwards. [ ]: non-standard residue; d: D form. The star is where a group is joined. C20 diacid = O=C(O)CCCCCCCCCCCCCCCCCCC(=O)*; αMePhe(2-F) = C[C@](N)(Cc1ccccc1F)C(=O)O; γGlu = O=C(O)[C@H](CCC(=O)[*:2])N[*:1]; αMeF = C[C@](N)(Cc1ccccc1)C(=O)O; 4Pal = N[C@@H](Cc1ccncc1)C(=O)O; AEEA = NCCOCCOCC(=O)O; Aib = CC(C)(N)C(=O)O

Experiments:
human GLP-1R = target: T1, human GLP-1R (Homo sapiens, UniProt P43220); test: [125I]-GLP-1 binding, SPA with WGA beads, 0.1% bacitracin; settings: geometric mean, read-out: hGLP1R Ki
T1 construct: expressed in transfected cells; crude membranes
How it was run: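 Binding buffer was 25 mM HEPES pH 7.4 with 2.5 mM CaCl2, 1 mM MgCl2, 0.1% (w/v) bacitracin, 0.003% Tween-20 and EDTA-free protease inhibitors. Four-parameter regression gave IC50, converted to Ki (geometric mean, SEM, n independent days).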

[1] = target: T2, human GLP-1 receptor (GLP-1R) (Homo sapiens, UniProt P43220); test: cAMP functional assay (HTRF) in HEK293 cells in presence of 0.1% casein; type: cell-based; settings: HEK293 cells expressing human GLP-1R, geometric mean, read-out: hGLP1R cAMP Rel EC50 nM (SEM, n)
T2 construct: expressed in transfected cells; host or cells: HEK293

human GcgR = target: T3, human GcgR (Homo sapiens, UniProt P47871); test: [125I]-Glucagon binding, SPA with WGA beads, 0.1% bacitracin; settings: geometric mean, read-out: hGcgR Ki
T3 construct: expressed in transfected cells; crude membranes
How it was run: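 SPA competition binding with WGA beads on crude membranes from HEK293 cells stably expressing hGcgR. Buffer: 25 mM HEPES pH 7.4, 2.5 mM CaCl2, 1 mM MgCl2, 0.1% bacitracin, 0.003% Tween-20; 10-point 3-fold dilutions, NSB with 1 μM Gcg.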

T1 sequence (P43220 24-463): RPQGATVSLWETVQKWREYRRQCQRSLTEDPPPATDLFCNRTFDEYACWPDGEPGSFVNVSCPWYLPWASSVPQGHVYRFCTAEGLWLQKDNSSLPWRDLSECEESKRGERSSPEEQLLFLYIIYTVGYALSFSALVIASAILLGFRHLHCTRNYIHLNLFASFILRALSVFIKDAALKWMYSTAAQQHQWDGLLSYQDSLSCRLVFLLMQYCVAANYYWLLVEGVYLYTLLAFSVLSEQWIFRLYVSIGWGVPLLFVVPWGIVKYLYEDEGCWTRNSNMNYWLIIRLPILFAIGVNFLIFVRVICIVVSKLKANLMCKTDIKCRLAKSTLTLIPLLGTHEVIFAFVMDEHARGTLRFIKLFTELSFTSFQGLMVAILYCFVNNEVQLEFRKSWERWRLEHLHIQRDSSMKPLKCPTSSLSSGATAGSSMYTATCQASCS
T2 sequence (P43220 24-463): as above
T3 sequence (P47871 26-477): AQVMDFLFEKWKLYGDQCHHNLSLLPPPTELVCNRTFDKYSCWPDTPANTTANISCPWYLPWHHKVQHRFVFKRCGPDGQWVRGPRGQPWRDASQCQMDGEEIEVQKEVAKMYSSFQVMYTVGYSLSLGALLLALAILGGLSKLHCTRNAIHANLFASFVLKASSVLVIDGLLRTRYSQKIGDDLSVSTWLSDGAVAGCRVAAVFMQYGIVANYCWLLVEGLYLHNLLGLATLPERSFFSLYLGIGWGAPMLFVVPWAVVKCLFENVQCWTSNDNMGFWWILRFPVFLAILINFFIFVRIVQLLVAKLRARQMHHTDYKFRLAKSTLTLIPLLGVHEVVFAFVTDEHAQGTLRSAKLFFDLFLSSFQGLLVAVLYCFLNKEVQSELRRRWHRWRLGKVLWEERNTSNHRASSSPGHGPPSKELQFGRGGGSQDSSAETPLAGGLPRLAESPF

SMILES	Ki (human GLP-1R)	EC50 [1]	Ki (human GcgR)
CC[C@H](C)[C@H](NC(=O)[C@H](CO)NC(=O)[C@H](Cc1ccc(O)cc1)NC(=O)[C@H](CC(=O)O)NC(=O)[C@H](CO)NC(=O)[C@@H](NC(=O)[C@](C)(Cc1ccccc1F)NC(=O)[C@@H](NC(=O)CNC(=O)[C@H](CCC(=O)O)NC(=O)C(C)(C)NC(=O)[C@@H](N)Cc1ccc(O)cc1)[C@@H](C)O)[C@@H](C)CC)C(=O)N[C@@H](C)C(=O)N[C@@H](CC(C)C)C(=O)N[C@@H](CC(=O)O)C(=O)N[C@@H](CCCCN)C(=O)N[C@@H](CCCCNC(=O)COCCOCCNC(=O)COCCOCCNC(=O)CC[C@H](NC(=O)CCCCCCCCCCCCCCCCCCC(=O)O)C(=O)O)C(=O)N[C@@H](Cc1c[nH]cn1)C(=O)N[C@@H](CCC(N)=O)C(=O)NC(C)(C)C(=O)N[C@@H](CC(=O)O)C(=O)N[C@@H](Cc1ccccc1)C(=O)N[C@H](C(=O)N[C@@H](CCC(=O)O)C(=O)N[C@@H](Cc1ccncc1)C(=O)N[C@@H](CC(C)C)C(=O)N[C@@H](CC(C)C)C(=O)N[C@@H](CCC(=O)O)C(=O)N[C@H](C(=O)NCC(=O)N1CCC[C@H]1C(=O)N[C@@H](CO)C(=O)N[C@@H](CO)C(=O)NCC(=O)N[C@@H](C)C(=O)N1CCC[C@H]1C(=O)N1CCC[C@H]1C(=O)N1CCC[C@H]1C(=O)N[C@@H](CO)C(N)=O)[C@@H](C)O)C(C)C [Example 38] (H-Y[Aib]EGT[αMePhe(2-F)]ISDYSIALDKK([AEEA-AEEA-γGlu-C20 diacid])HQ[Aib]DFVE[4Pal]LLETGPSSGAPPPS-NH2)	776 nM	1390 nM	182 nM
CC[C@H](C)[C@H](NC(=O)[C@H](CO)NC(=O)[C@H](Cc1ccc(O)cc1)NC(=O)[C@H](CC(=O)O)NC(=O)[C@H](CO)NC(=O)[C@@H](NC(=O)[C@](C)(Cc1ccccc1F)NC(=O)[C@@H](NC(=O)CNC(=O)[C@H](CCC(=O)O)NC(=O)C(C)(C)NC(=O)[C@@H](N)Cc1ccc(O)cc1)[C@@H](C)O)[C@@H](C)CC)C(=O)N[C@@H](C)C(=O)N[C@@H](CC(C)C)C(=O)N[C@@H](CC(=O)O)C(=O)N[C@@H](CCCCN)C(=O)N[C@@H](CCCCNC(=O)COCCOCCNC(=O)COCCOCCNC(=O)CC[C@H](NC(=O)CCCCCCCCCCCCCCCCCCC(=O)O)C(=O)O)C(=O)N[C@@H](Cc1c[nH]cn1)C(=O)N[C@@H](CCC(N)=O)C(=O)NC(C)(C)C(=O)N[C@@H](CC(=O)O)C(=O)N[C@@H](Cc1ccccc1)C(=O)N[C@H](C(=O)N[C@@H](CCC(=O)O)C(=O)N[C@@H](Cc1ccncc1)C(=O)N[C@@H](CC(C)C)C(=O)N[C@@H](CC(C)C)C(=O)N[C@@H](CCC(=O)O)C(=O)NCC(=O)NCC(=O)N1CCC[C@H]1C(=O)N[C@@H](CO)C(=O)N[C@@H](CO)C(=O)NCC(=O)N[C@@H](C)C(=O)N1CCC[C@H]1C(=O)N1CCC[C@H]1C(=O)N1CCC[C@H]1C(=O)N[C@@H](CO)C(N)=O)C(C)C [Example 39] (H-Y[Aib]EGT[αMePhe(2-F)]ISDYSIALDKK([AEEA-AEEA-γGlu-C20 diacid])HQ[Aib]DFVE[4Pal]LLEGGPSSGAPPPS-NH2)	235 nM	3330 nM	76 nM
CC[C@H](C)[C@H](NC(=O)[C@H](CO)NC(=O)[C@H](Cc1ccc(O)cc1)NC(=O)[C@H](CC(=O)O)NC(=O)[C@H](CO)NC(=O)[C@@H](NC(=O)[C@](C)(Cc1ccccc1F)NC(=O)[C@@H](NC(=O)CNC(=O)[C@H](CCC(=O)O)NC(=O)C(C)(C)NC(=O)[C@@H](N)Cc1ccc(O)cc1)[C@@H](C)O)[C@@H](C)CC)C(=O)N[C@@H](C)C(=O)N[C@@H](CC(C)C)C(=O)N[C@@H](CC(=O)O)C(=O)N[C@@H](CCCCN)C(=O)N[C@@H](CCCCNC(=O)COCCOCCNC(=O)COCCOCCNC(=O)CC[C@H](NC(=O)CCCCCCCCCCCCCCCCCCC(=O)O)C(=O)O)C(=O)N[C@@H](Cc1c[nH]cn1)C(=O)N[C@@H](CCC(N)=O)C(=O)NC(C)(C)C(=O)N[C@@H](CC(=O)O)C(=O)N[C@@H](Cc1ccccc1)C(=O)N[C@H](C(=O)N[C@@H](CCC(=O)O)C(=O)N[C@@H](Cc1c[nH]c2ccccc12)C(=O)N[C@@H](CC(C)C)C(=O)N[C@@H](CC(C)C)C(=O)N[C@@H](CCC(=O)O)C(=O)N[C@H](C(=O)NCC(=O)N1CCC[C@H]1C(=O)N[C@@H](CO)C(=O)N[C@@H](CO)C(=O)NCC(=O)N[C@@H](C)C(=O)N1CCC[C@H]1C(=O)N1CCC[C@H]1C(=O)N1CCC[C@H]1C(=O)N[C@@H](CO)C(N)=O)[C@@H](C)O)C(C)C [Example 40] (H-Y[Aib]EGT[αMePhe(2-F)]ISDYSIALDKK([AEEA-AEEA-γGlu-C20 diacid])HQ[Aib]DFVEWLLETGPSSGAPPPS-NH2)	302 nM	2330 nM	50.9 nM
CC[C@H](C)[C@H](NC(=O)[C@H](CO)NC(=O)[C@H](Cc1ccc(O)cc1)NC(=O)[C@H](CC(=O)O)NC(=O)[C@H](CO)NC(=O)[C@@H](NC(=O)[C@](C)(Cc1ccccc1)NC(=O)[C@@H](NC(=O)CNC(=O)[C@H](CCC(=O)O)NC(=O)C(C)(C)NC(=O)[C@@H](N)Cc1ccc(O)cc1)[C@@H](C)O)[C@@H](C)CC)C(=O)N[C@@H](C)C(=O)N[C@@H](CC(C)C)C(=O)N[C@@H](CC(=O)O)C(=O)N[C@@H](CCCCN)C(=O)N[C@@H](CCCCNC(=O)COCCOCCNC(=O)COCCOCCNC(=O)CC[C@H](NC(=O)CCCCCCCCCCCCCCCCCCC(=O)O)C(=O)O)C(=O)N[C@@H](Cc1c[nH]cn1)C(=O)N[C@@H](CCC(N)=O)C(=O)NC(C)(C)C(=O)N[C@@H](CC(=O)O)C(=O)N[C@@H](Cc1ccccc1)C(=O)N[C@H](C(=O)N[C@@H](CCC(=O)O)C(=O)N[C@@H](Cc1ccncc1)C(=O)N[C@@H](CC(C)C)C(=O)N[C@@H](CC(C)C)C(=O)N[C@@H](CCC(=O)O)C(=O)N[C@H](C(=O)NCC(=O)N1CCC[C@H]1C(=O)N[C@@H](CO)C(=O)N[C@@H](CO)C(=O)NCC(=O)N[C@@H](C)C(=O)N1CCC[C@H]1C(=O)N1CCC[C@H]1C(=O)N1CCC[C@H]1C(=O)N[C@@H](CO)C(N)=O)[C@@H](C)O)C(C)C [Example 41] (H-Y[Aib]EGT[αMeF]ISDYSIALDKK([AEEA-AEEA-γGlu-C20 diacid])HQ[Aib]DFVE[4Pal]LLETGPSSGAPPPS-NH2)	> 906 nM	1800 nM	758 nM
CC[C@H](C)[C@H](NC(=O)[C@H](CO)NC(=O)[C@H](Cc1ccc(O)cc1)NC(=O)[C@H](CC(=O)O)NC(=O)[C@H](CO)NC(=O)[C@@H](NC(=O)[C@](C)(Cc1ccccc1)NC(=O)[C@@H](NC(=O)CNC(=O)[C@H](CCC(=O)O)NC(=O)C(C)(C)NC(=O)[C@@H](N)Cc1ccc(O)cc1)[C@@H](C)O)[C@@H](C)CC)C(=O)N[C@@H](C)C(=O)N[C@@H](CC(C)C)C(=O)N[C@@H](CC(=O)O)C(=O)N[C@@H](CCCCN)C(=O)N[C@@H](CCCCNC(=O)COCCOCCNC(=O)COCCOCCNC(=O)CC[C@H](NC(=O)CCCCCCCCCCCCCCCCCCC(=O)O)C(=O)O)C(=O)N[C@@H](Cc1c[nH]cn1)C(=O)N[C@@H](CCC(N)=O)C(=O)NC(C)(C)C(=O)N[C@@H](CC(=O)O)C(=O)N[C@@H](Cc1ccccc1)C(=O)N[C@H](C(=O)N[C@@H](CCC(=O)O)C(=O)N[C@@H](Cc1ccncc1)C(=O)N[C@@H](CC(C)C)C(=O)N[C@@H](CC(C)C)C(=O)N[C@@H](CCC(=O)O)C(=O)N[C@@H](CCC(N)=O)C(=O)NCC(=O)N1CCC[C@H]1C(=O)N[C@@H](CO)C(=O)N[C@@H](CO)C(=O)NCC(=O)N[C@@H](C)C(=O)N1CCC[C@H]1C(=O)N1CCC[C@H]1C(=O)N1CCC[C@H]1C(=O)N[C@@H](CO)C(N)=O)C(C)C [Example 42] (H-Y[Aib]EGT[αMeF]ISDYSIALDKK([AEEA-AEEA-γGlu-C20 diacid])HQ[Aib]DFVE[4Pal]LLEQGPSSGAPPPS-NH2)	563 nM	815 nM	99.1 nM
CC[C@H](C)[C@H](NC(=O)[C@H](CO)NC(=O)[C@H](Cc1ccc(O)cc1)NC(=O)[C@H](CC(=O)O)NC(=O)[C@H](CO)NC(=O)[C@@H](NC(=O)[C@](C)(Cc1ccccc1)NC(=O)[C@@H](NC(=O)CNC(=O)[C@H](CCC(=O)O)NC(=O)C(C)(C)NC(=O)[C@@H](N)Cc1ccc(O)cc1)[C@@H](C)O)[C@@H](C)CC)C(=O)N[C@@H](C)C(=O)N[C@@H](CC(C)C)C(=O)N[C@@H](CC(=O)O)C(=O)N[C@@H](CCCCN)C(=O)N[C@@H](CCCCNC(=O)COCCOCCNC(=O)COCCOCCNC(=O)CC[C@H](NC(=O)CCCCCCCCCCCCCCCCCCC(=O)O)C(=O)O)C(=O)N[C@@H](Cc1c[nH]cn1)C(=O)N[C@@H](CCC(N)=O)C(=O)NC(C)(C)C(=O)N[C@@H](CC(=O)O)C(=O)N[C@@H](Cc1ccccc1)C(=O)N[C@H](C(=O)N[C@@H](CCC(=O)O)C(=O)N[C@@H](Cc1ccncc1)C(=O)N[C@@H](CC(C)C)C(=O)N[C@@H](CC(C)C)C(=O)N[C@@H](CCC(=O)O)C(=O)N[C@@H](C)C(=O)NCC(=O)N1CCC[C@H]1C(=O)N[C@@H](CO)C(=O)N[C@@H](CO)C(=O)NCC(=O)N[C@@H](C)C(=O)N1CCC[C@H]1C(=O)N1CCC[C@H]1C(=O)N1CCC[C@H]1C(=O)N[C@@H](CO)C(N)=O)C(C)C [Example 43] (H-Y[Aib]EGT[αMeF]ISDYSIALDKK([AEEA-AEEA-γGlu-C20 diacid])HQ[Aib]DFVE[4Pal]LLEAGPSSGAPPPS-NH2)	605 nM	1020 nM	285 nM
